# Values quoted from earlier work in US20040198651A1, “Secreted proteins” (priority 2001, published 2004).
# Columns and labels:
# [1] = relative to progesterone
# [2] = intranasal; relative to hydrocortisone
Molecule,pharmacological activity greater than progesterone [1],anti-inflammatory and vasoconstrictive effects greater than those produced by hydrocortisone [2]
6α-methyl-17-hydroxyprogesterone [medroxyprogesterone],about 15 times,–
C[C@H]1C[C@H]2[C@@H]3CCC4=CC(=O)C=C[C@]4(C)[C@@]3(Cl)[C@@H](O)C[C@]2(C)[C@@]1(O)C(=O)CO [beclomethasone],–,5000 times
